Results: PubChem BioAssay (NCI)
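Step 1: Grow cells in 96-well plates. Step 2: Expose to compound for 48 hours at 5 concentrations. Step 3: Interpolate endpoints linearly; if unreached, use highest concentration. GI50 marks 50% less growth. TGI denotes the concentration required for complete inhibition of growth.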

How the values were obtained:
Test in all cases: NCI-60 cell line screen, 48 h
SR leukemia = system: SR leukemia
OVCAR-3 ovarian = system: OVCAR-3 ovarian
SF-295 CNS = system: SF-295 CNS
NCI-H226 lung = system: NCI-H226 lung
HOP-92 NSCLC = system: HOP-92 NSCLC
OVCAR-4 ovarian = system: OVCAR-4 ovarian
SK-MEL-5 melanoma = system: SK-MEL-5 melanoma
UACC-62 melanoma = system: UACC-62 melanoma
DU-145 prostate = system: DU-145 prostate
SN12C renal = system: SN12C renal

O=c1oc(C(C(F)(F)F)C(F)(F)F)nc2ccccc12
TGI (SR leukemia): > 100 µM
TGI (OVCAR-3 ovarian): > 100 µM
TGI (SF-295 CNS): > 100 µM
TGI (NCI-H226 lung): > 100 µM
TGI (HOP-92 NSCLC): > 100 µM
TGI (OVCAR-4 ovarian): > 100 µM
TGI (SK-MEL-5 melanoma): > 100 µM

CC(C)(C)CC(C)(C)c1cc(O)c(O)c(CN2CCCCC2)c1
TGI (UACC-62 melanoma): 29.8 µM
TGI (OVCAR-3 ovarian): 28 µM
TGI (SF-295 CNS): 32.3 µM
TGI (NCI-H226 lung): 32 µM
TGI (HOP-92 NSCLC): 35 µM
TGI (OVCAR-4 ovarian): 42 µM
TGI (DU-145 prostate): 30.5 µM
TGI (SN12C renal): 30.3 µM
TGI (SK-MEL-5 melanoma): 28.9 µM

Cc1nnc2n1N=C(c1ccc(Cl)cc1Cl)/C(=C/c1ccc(-c3ccc([N+](=O)[O-])cc3Cl)o1)S2
GI50 (UACC-62 melanoma): 18.4 µM
TGI (UACC-62 melanoma): 39.9 µM
GI50 (OVCAR-3 ovarian): 14.4 µM
TGI (OVCAR-3 ovarian): 34 µM
GI50 (SF-295 CNS): 43.5 µM
TGI (SF-295 CNS): > 100 µM
GI50 (NCI-H226 lung): 20.7 µM
TGI (NCI-H226 lung): 41.1 µM
GI50 (HOP-92 NSCLC): 21.5 µM
TGI (HOP-92 NSCLC): 72.5 µM
GI50 (OVCAR-4 ovarian): 33.4 µM
TGI (OVCAR-4 ovarian): > 100 µM
GI50 (DU-145 prostate): 18.7 µM
TGI (DU-145 prostate): 38.9 µM
GI50 (SN12C renal): 17.8 µM
TGI (SN12C renal): 40.9 µM
GI50 (SK-MEL-5 melanoma): 16.5 µM
TGI (SK-MEL-5 melanoma): 32.6 µM

COc1cnc2c(c1)C(=O)c1c-2n(CCCNCCO)c(=O)c2ccncc12
GI50 (UACC-62 melanoma): 0.552 µM
TGI (UACC-62 melanoma): 2.12 µM
GI50 (OVCAR-3 ovarian): 2.26 µM
TGI (OVCAR-3 ovarian): 9.73 µM
GI50 (SF-295 CNS): 0.912 µM
TGI (SF-295 CNS): 7.89 µM
GI50 (NCI-H226 lung): 0.601 µM
TGI (NCI-H226 lung): 3.65 µM
GI50 (HOP-92 NSCLC): 1.4 µM
TGI (HOP-92 NSCLC): 6.31 µM
GI50 (OVCAR-4 ovarian): 1.38 µM
TGI (OVCAR-4 ovarian): 7.46 µM
GI50 (DU-145 prostate): 1.36 µM
TGI (DU-145 prostate): 6.73 µM
GI50 (SN12C renal): 1.08 µM
TGI (SN12C renal): 13.6 µM
GI50 (SK-MEL-5 melanoma): 1.43 µM
TGI (SK-MEL-5 melanoma): 3.38 µM

C=C(C)CC1(O[Si](C)(C)C)C(=O)C(OCC)=C1OCC (stereo unspecified)
TGI (UACC-62 melanoma): > 100 µM
TGI (OVCAR-3 ovarian): > 100 µM
TGI (SF-295 CNS): > 100 µM
TGI (NCI-H226 lung): > 100 µM
TGI (HOP-92 NSCLC): > 100 µM
TGI (OVCAR-4 ovarian): > 100 µM
TGI (DU-145 prostate): > 100 µM
TGI (SN12C renal): > 100 µM
TGI (SK-MEL-5 melanoma): > 100 µM

CN(Cc1cnc2nc(N)nc(N)c2n1)c1ccc(C(=O)NC(CO)CCCO)cc1 (stereo unspecified)
TGI (SR leukemia): > 100 µM
TGI (UACC-62 melanoma): > 100 µM
TGI (OVCAR-3 ovarian): > 100 µM
TGI (SF-295 CNS): > 100 µM
TGI (NCI-H226 lung): > 100 µM
TGI (DU-145 prostate): > 100 µM
TGI (SN12C renal): > 100 µM
TGI (SK-MEL-5 melanoma): > 100 µM

C=CCC1C(O[Si](C)(C)C(C)(C)C)C(CO[Si](C)(C)C(C)(C)C)OC1n1ccc(=O)[nH]c1=O (stereo unspecified)
TGI (SR leukemia): 18.4 µM
TGI (UACC-62 melanoma): 3.46 µM
TGI (OVCAR-3 ovarian): 3.34 µM
TGI (SF-295 CNS): 3.59 µM
TGI (NCI-H226 lung): 3.02 µM
TGI (HOP-92 NSCLC): 2.5 µM
TGI (DU-145 prostate): 4.54 µM
TGI (SN12C renal): 2.8 µM
TGI (SK-MEL-5 melanoma): 2.91 µM

CC1(C)CC(=O)C2(CC(CSc3ccccc3)C(CS(=O)(=O)c3ccccc3)C2)C(=O)C1 (stereo unspecified)
TGI (UACC-62 melanoma): > 100 µM
TGI (OVCAR-3 ovarian): > 100 µM
TGI (SF-295 CNS): > 100 µM
TGI (NCI-H226 lung): > 100 µM
TGI (HOP-92 NSCLC): > 100 µM
TGI (OVCAR-4 ovarian): > 100 µM
TGI (DU-145 prostate): > 100 µM
TGI (SN12C renal): > 100 µM
TGI (SK-MEL-5 melanoma): > 100 µM

COc1ccc(C(=O)CC(c2ccccc2)[C@H]2C(c3ccc(OC)cc3)=Nc3c(nc(SC)n(C)c3=O)NC2c2ccccc2)cc1 (stereo partly specified)
TGI (SR leukemia): > 100 µM
TGI (UACC-62 melanoma): > 100 µM
TGI (OVCAR-3 ovarian): > 100 µM
TGI (SF-295 CNS): > 100 µM
TGI (NCI-H226 lung): > 100 µM
TGI (HOP-92 NSCLC): > 100 µM
TGI (DU-145 prostate): > 100 µM
TGI (SN12C renal): > 100 µM
TGI (SK-MEL-5 melanoma): > 100 µM

CCOP(=O)(OCC)/C(=C/c1cccs1)CC(C)=O
TGI (UACC-62 melanoma): > 100 µM
TGI (OVCAR-3 ovarian): > 100 µM
TGI (SF-295 CNS): > 100 µM
TGI (NCI-H226 lung): > 100 µM
TGI (HOP-92 NSCLC): > 100 µM
TGI (OVCAR-4 ovarian): > 100 µM
TGI (DU-145 prostate): > 100 µM
TGI (SN12C renal): > 100 µM
TGI (SK-MEL-5 melanoma): > 100 µM

O=C(O)c1ccccc1N=Cc1ccc(N(CCCl)CCCl)cc1
TGI (UACC-62 melanoma): > 100 µM
TGI (OVCAR-3 ovarian): > 100 µM
TGI (SF-295 CNS): > 100 µM
TGI (HOP-92 NSCLC): > 100 µM
TGI (OVCAR-4 ovarian): > 100 µM
TGI (SN12C renal): > 100 µM
TGI (SK-MEL-5 melanoma): > 100 µM

CCOC(=O)Nn1c(CC#N)nnc1Cc1ccccc1
TGI (SR leukemia): > 100 µM
TGI (UACC-62 melanoma): > 100 µM
TGI (OVCAR-3 ovarian): > 100 µM
TGI (SF-295 CNS): > 100 µM
TGI (NCI-H226 lung): > 100 µM
TGI (HOP-92 NSCLC): > 100 µM
TGI (DU-145 prostate): > 100 µM
TGI (SN12C renal): > 100 µM
TGI (SK-MEL-5 melanoma): > 100 µM

C/C(=N\Nc1nc2ccccc2n1C)c1cc2ccccc2cn1
TGI (SR leukemia): > 100 µM
TGI (UACC-62 melanoma): 0.94 µM
TGI (SF-295 CNS): 5.39 µM
TGI (NCI-H226 lung): 2.22 µM
TGI (HOP-92 NSCLC): 3.86 µM
TGI (OVCAR-4 ovarian): 13 µM
TGI (DU-145 prostate): 8.08 µM
TGI (SN12C renal): 3.29 µM
TGI (SK-MEL-5 melanoma): 12.4 µM

Cc1ccc(S(=O)(=O)Nn2c(O)c(C#N)c(-c3ccc(Cl)cc3)c(C#N)c2=O)cc1
TGI (UACC-62 melanoma): > 100 µM
TGI (SF-295 CNS): > 100 µM
TGI (NCI-H226 lung): > 100 µM
TGI (HOP-92 NSCLC): > 100 µM
TGI (OVCAR-4 ovarian): > 100 µM
TGI (SN12C renal): > 100 µM
TGI (SK-MEL-5 melanoma): > 100 µM

C=CC[n+]1c2ccccc2n2cc([N+](=O)[O-])ccc21
TGI (UACC-62 melanoma): 74.9 µM
TGI (OVCAR-3 ovarian): 69.7 µM
TGI (SF-295 CNS): > 100 µM
TGI (NCI-H226 lung): 69.3 µM
TGI (HOP-92 NSCLC): 46.5 µM
TGI (OVCAR-4 ovarian): > 100 µM
TGI (DU-145 prostate): > 100 µM
TGI (SN12C renal): 68.7 µM
TGI (SK-MEL-5 melanoma): 42 µM

Cc1nc(N)c(N2CCN(CN)CC2)c(=O)[nH]1
TGI (SR leukemia): > 100 µM
TGI (OVCAR-3 ovarian): > 100 µM
TGI (SF-295 CNS): > 100 µM
TGI (NCI-H226 lung): > 100 µM
TGI (OVCAR-4 ovarian): > 100 µM
TGI (DU-145 prostate): > 100 µM
TGI (SN12C renal): > 100 µM

CCOP(=O)(O)CN1CCNCCN(CP(=O)(O)OCC)CCNCC1
TGI (UACC-62 melanoma): > 100 µM
TGI (OVCAR-3 ovarian): > 100 µM
TGI (SF-295 CNS): > 100 µM
TGI (NCI-H226 lung): > 100 µM
TGI (HOP-92 NSCLC): > 100 µM
TGI (OVCAR-4 ovarian): > 100 µM
TGI (DU-145 prostate): > 100 µM
TGI (SN12C renal): > 100 µM
TGI (SK-MEL-5 melanoma): > 100 µM

COC(=O)C1C(=O)N(C)C(=O)N2CCCC12 (stereo unspecified)
TGI (UACC-62 melanoma): > 100 µM
TGI (OVCAR-3 ovarian): > 100 µM
TGI (SF-295 CNS): > 100 µM
TGI (NCI-H226 lung): > 100 µM
TGI (HOP-92 NSCLC): > 100 µM
TGI (OVCAR-4 ovarian): > 100 µM
TGI (DU-145 prostate): > 100 µM
TGI (SK-MEL-5 melanoma): > 100 µM

C=CCP(=O)(CC=C)C(Cl)Cl
TGI (SR leukemia): > 100 µM
TGI (OVCAR-3 ovarian): > 100 µM
TGI (SF-295 CNS): > 100 µM
TGI (NCI-H226 lung): > 100 µM
TGI (HOP-92 NSCLC): > 100 µM
TGI (OVCAR-4 ovarian): > 100 µM
TGI (DU-145 prostate): > 100 µM
TGI (SN12C renal): > 100 µM
TGI (SK-MEL-5 melanoma): > 100 µM

COc1cccc(C=O)c1[O-].[O]=[U](=[O])([OH2+])[OH2+]
TGI (SR leukemia): 87.5 µM
TGI (UACC-62 melanoma): 57.6 µM
TGI (OVCAR-3 ovarian): 49.4 µM
TGI (SF-295 CNS): 78.6 µM
TGI (NCI-H226 lung): > 100 µM
TGI (HOP-92 NSCLC): > 100 µM
TGI (OVCAR-4 ovarian): > 100 µM
TGI (SN12C renal): > 100 µM
TGI (SK-MEL-5 melanoma): > 100 µM

NCC(O)CSCc1ccc(Cl)cc1 (stereo unspecified)
TGI (UACC-62 melanoma): > 100 µM
TGI (OVCAR-3 ovarian): > 100 µM
TGI (SF-295 CNS): > 100 µM
TGI (NCI-H226 lung): > 100 µM
TGI (HOP-92 NSCLC): > 100 µM
TGI (OVCAR-4 ovarian): > 100 µM
TGI (DU-145 prostate): > 100 µM
TGI (SN12C renal): > 100 µM
TGI (SK-MEL-5 melanoma): > 100 µM

CN=C(/N=c1\ssc(=NC)n1C)N(C)C
TGI (SR leukemia): > 100 µM
TGI (UACC-62 melanoma): > 100 µM
TGI (OVCAR-3 ovarian): > 100 µM
TGI (SF-295 CNS): > 100 µM
TGI (NCI-H226 lung): > 100 µM
TGI (HOP-92 NSCLC): > 100 µM
TGI (OVCAR-4 ovarian): > 100 µM
TGI (SN12C renal): > 100 µM
TGI (SK-MEL-5 melanoma): > 100 µM
